Data as given in patent publication US20080287531A1, “Preventive and/or Therapeutic Agent for Sleeping Disorder” (Kyowa Hakko Co., Ltd., priority 2004, published 2008).
Where “and” joins values, the source holds several entries; their conditions need not be identical. Identical values can stand only once. Entries after “also recorded” stand apart in the source; their conditions may differ. Counter-ions that a name gives are not always drawn.

Experiments:
[1] = system: nasal congestion reaction; conditions: guinea pigs, experimental allergic rhinitis model, Non-patent Document 8; cited from earlier work
[2] = system: nasal congestion of allergic rhinitis; conditions: Phase III test, Non-patent Document 7; cited from earlier work
[3] = system: patients with sleep apnea syndrome / sleeping disorder; experiment: Polysonography (PSG) before and after administration of olopatadine hydrochloride; assay type: in vivo, human; conditions: for AI After therapy: apnea index by PSG; for AHI After therapy: apnea-hypopnea index by PSG; for Arousals Index After therapy: arousals index per hour by PSG
Procedure: (§1) Olopatadine hydrochloride was orally administered at a dose of 10 mg/day [a 5-mg tablet of Allelock (registered trademark: Kyowa Hakko Kogyo Co., Ltd.) was administered everyday, twice a day, with one tablet for each administration] to three patients (patient Nos. 1 to 3) with sleep apnea syndrome complicated by allergic rhinitis and seven patients (patient Nos. 4 to 10) with sleeping disorder which is not complicated by allergic rhinitis including four patients (patient Nos. 4 to 6 and 8) with sleep apnea syndrome which is not complicated by allergic rhinitis. Before and after the administration of olopatadine hydrochloride, an apnea-hypopnea index (AHI), an apnea index (AI) and an arousals index per hour were measured respectively by polysonography (PSG) for each patient. Further, before and after the administration of olopatadine hydrochloride, a test for daytime Epworth sleepness scale was performed according to the following.
The presence or absence of allergic rhinitis was confirmed by performing RAST (radioallergosorbent test) for 12 types of antigens [house dust, Dermatophagoides pteronyssinus, Japanese cedar, Hinoki cypress, Japanese alder, ragweed, mugwort, goldenrod, Cocksfoot (Dactylis glomerata), Candida albicans, mold and animal epithelium].
The patients uncomplicated by allergic rhinitis had airway obstruction caused by non-atopic rhinitis.

[4] = system: patients with sleep apnea syndrome / sleeping disorder; experiment: Daytime Epworth sleepness scale (ESS) test; assay type: in vivo, human; conditions: total of 8 conditions, 10 points or less is normal, oral 10 mg/day
Procedure: as §1
In the following conditions 1 to 8, sleepiness was determined according to the next four levels, and seriousness of daytime sleepiness was evaluated by the total (ESS) of the points. A case in which ESS is 10 points or less is evaluated as normal.
2 points=sometimes sleeps
1. when sitting and reading a book
2. when watching television
3. when sitting in a public place without movement (for example, in a theater or a conference room) […]

[5] = system: patients with sleep apnea syndrome / sleeping disorder; experiment: Estimation of effect on chief-complaint symptoms (snore, apnea, daytime sleepiness); assay type: in vivo, human; conditions: for Estimation of effect: oral 10 mg/day
Procedure: as §1
The effect of the agent was estimated according to the following standard.
Incidentally, as objective assessment, improved conditions in values of AHI, AI, arousals index and ESS were used for reference.

[6] = oral 10 mg/day, 74-160 days, one line per patient (Nos. 4-10), sleeping disorder not complicated by allergic rhinitis
[7] = oral 10 mg/day, 160-342 days, one line per patient (Nos. 1-3), sleep apnea syndrome complicated by allergic rhinitis

CN(C)CC/C=C1/c2ccccc2COc2ccc(CC(=O)O)cc21 [compound 1, (Z)-11-(3-dimethylaminopropylidene)-6,11-dihydrodibenzo[b,e]oxepine-2-acetic acid]
Action on nasal congestion reaction [1]: inhibitory action on a nasal congestion reaction
Effect on nasal congestion of allergic rhinitis [2]: highly improve the nasal congestion of allergic rhinitis

CN(C)CC/C=C1/c2ccccc2COc2ccc(CC(=O)O)cc21 [olopatadine hydrochloride]
AI After therapy [3, 6]: 3.4 and 1.2 and 3.1 and 0.8 (2×) and 0.4 and 2.8
AI After therapy [3, 7]: 4.3 and 1.5 and 7.6
AHI After therapy ([3]; oral 10 mg/day (5-mg tablet twice a day), 160-342 days, one line per patient (Nos. 1-3), sleep apnea syndrome complicated by allergic rhinitis): 5.8 and 2.7 and 11.1
AHI After therapy [3, 6]: 4.2 and 2.6 and 4.5 and 1.3 and 0.9 and 1.8 and 3.4
Arousals Index After therapy [3, 6]: 5.9 and 2.6 and 5.3 and 2.3 and 1.8 and 2.1 and 4.9
Arousals Index After therapy [3, 7]: 10.3 and 4.4 and 18.9
ESS After therapy ([4]; 74-160 days, one line per patient (Nos. 4-10), not complicated by allergic rhinitis): 11 points and 10 points (2×) and 8 points and 9 points (2×) and 12 points
ESS After therapy ([4]; 160-342 days, one line per patient (Nos. 1-3), complicated by allergic rhinitis): 12 points and 11 points and 9 points
Estimation of effect ([5]; 74-160 days, one line per patient (Nos. 4-10), sleeping disorder not complicated by allergic rhinitis): Improved; also recorded: Markedly
Estimation of effect ([5]; 160-342 days, one line per patient (Nos. 1-3), sleep apnea syndrome complicated by allergic rhinitis): Improved; also recorded: Markedly
Clinical effect on symptoms of sleeping disorder ([5]; patients with sleep apnea syndrome complicated by allergic rhinitis, snore, apnea, hypopnea, arousals, daytime sleepiness): improves symptoms of sleeping disorder
Clinical effect on symptoms of sleeping disorder ([5]; patients with sleeping disorder not complicated by allergic rhinitis, snore, apnea, hypopnea, arousals, daytime sleepiness, morning headache): improves symptoms of sleeping disorder
Clinical effect on symptoms of sleeping disorder ([5]; regardless of the presence or absence of complication by allergic rhinitis): improves symptoms of sleeping disorder
